In patent US6379083B1, “Method for the remediation of soil contaminated with organic halide compounds” (Hazama Corporation, priority 1998, dated 2002):
≈ marks a conversion by molar mass, not a printed value. Where two headings read alike, the source gives them in different places.

Test: Solubility of volatile organic halide in carbonic acid aqueous solution (Example 3)
Type: physicochemical
Conditions: for solubility at 24 h: 20.7 °C, thermodynamic from solid, read-out: Detected amount of trichloroethylene (saturated solubility)
Protocol: Using a carbonic acid aqueous solution having carbonated ion-concentration of 7,700 mg/L (i.e., 7,700 ppm) and natural water (trade name: Eapin; carbonated ion-concentration of 0 mg/L), four kinds of carbonic acid aqueous solutions (i.e., carbonated ion-concentration: 340 mg/L, 920 mg/L, 1700 mg/L and 7,700 mg/L) were prepared.
Using a syringe, 0.14 g of excess trichloroethylene was added to the water or solution, and each linked part in the Glass-Vials was sealed by the use of Teflon tape. The mixture was stirred for 30 minutes using a magnetic stirrer, and allowed to stand for 24 hours. Thereafter, a supernatant fraction was quickly collected and extracted to give trichloroethylene. These procedures were performed at temperature of 20.7° C.
As for the above natural water and carbonic acid aqueous solutions before the injection into the glass-bialbin, their carbonated ion-concentrations were measured by means of neutralization titration. The titration was conducted according to strontium chloride/monobasic acid-base titration described in JIS K 0101 25.
To the supernatant fraction obtained above, n-hexane for test of remaining agriculture chemical was added in the same amount as the fraction, and vigorously stirred to give an n-hexane layer. The layer was analyzed by a gas chromatography in the following conditions:
Analyzer: GC-17A type available from Shimadzu Corp.
Column: AQUATAC 75 m×0.53 mmφ
Column Temperature: 210° C.

## ClC=C(Cl)Cl [trichloroethylene]
Aqueous buffer, Carbonated ion concentration 340 mg/L
  solubility at 24 h: 780 µg/mL (≈ 5.94 mM)
Aqueous buffer, Carbonated ion concentration 920 mg/L
  solubility at 24 h: 1000 µg/mL (≈ 7.61 mM)
Aqueous buffer, Carbonated ion concentration 7700 mg/L
  solubility at 24 h: 1300 µg/mL (≈ 9.89 mM)
Carbonated ion concentration 1700 mg/L, 20.7° C.
  Detected amount of trichloroethylene (saturated solubility): 1100 µg/mL
Natural water (Eapin; carbonated ion concentration 0 mg/L), water, Carbonated ion concentration 0 mg/L (natural water)
  solubility at 24 h: 750 µg/mL (≈ 5.71 mM)
